Consider 17 compounds from US20230399312A1, “SUBSTITUTED PYRIMIDINES AND METHODS OF USE” (THERAVANCE BIOPHARMA R&D IP, LLC, priority 2020, published 2023).

The structures appear in SMILES notation. A value given as a limit tells only on which side of the number the result lay.

The target in assay [1] is T1, recombinant human ALK5 (TGF-βR1) protein (Homo sapiens, UniProt P36897).
T1 construct: purchased Life Technologies PR9075A
T1 sequence (P36897 34-503): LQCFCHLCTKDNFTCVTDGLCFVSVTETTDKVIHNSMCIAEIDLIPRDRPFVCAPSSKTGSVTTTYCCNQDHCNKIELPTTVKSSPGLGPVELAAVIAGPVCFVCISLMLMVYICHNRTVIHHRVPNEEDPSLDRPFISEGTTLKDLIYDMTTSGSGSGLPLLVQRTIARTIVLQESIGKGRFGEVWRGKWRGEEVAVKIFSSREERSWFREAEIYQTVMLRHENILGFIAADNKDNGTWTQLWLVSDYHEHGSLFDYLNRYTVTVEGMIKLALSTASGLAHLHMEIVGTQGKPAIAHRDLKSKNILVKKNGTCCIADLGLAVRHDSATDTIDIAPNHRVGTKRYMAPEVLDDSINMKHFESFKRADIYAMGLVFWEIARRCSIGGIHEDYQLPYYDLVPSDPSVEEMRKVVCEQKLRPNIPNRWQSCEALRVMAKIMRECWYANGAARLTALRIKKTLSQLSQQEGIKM
Briefly: Biochemical ALK5 (TGF-βR1) assay to measure pKi (LANCE Ultra ULight kinase assay). The conditions noted are these: apparent pKi, converted from pIC50 by Cheng-Prusoff. The protocol: The assays were performed in a 384-well plate (24 columns×16 wells/rows). An Echo®550 Liquid Handler (Labcyte) was used to prepare various intermediate concentrations of compounds of the present disclosure in 100% DMSO. From the intermediate concentrations, a range of concentrations (from […] to 25 μM corresponding to volumes up to 105 nL) were prepared and ejected into a final assay plate to be used to create individual dose response curves for each of the subject compounds. To a separate column within the assay plate, 105 nL of DMSO in each well was used to establish a maximum assay signal. Additionally, 105 nL of 100 μM SD-208, a selective TGF-βR1 inhibitor (Catalog #S7624, Selleck Chemicals), was used in another column of wells to establish a minimal assay signal.
With a multidrop dispenser, 8 μL of enzyme mixture (1.25× final) was added to each well. […] The plate was then sealed with an adhesive seal and allowed to equilibrate for 60 minutes at room temperature.
Next, 2 μL of 125 μM ATP (5×final, 125 μM ATP prepared in assay buffer with 2 mM DTT) was added to the incubated mixtures, covered with a MicroClime® Environmental Lid (Product No. LLS-0310, Labcyte) and immediately transferred to 37° C. The reactions were allowed to proceed at 37° C. for 60 minutes before terminating with the addition of 10 μL of detection antibody (LANCE® (lanthanide chelate excite) Ultra Europium-anti-phospo-DNA Topoisomerase 2-alpha (Thr1342)) in detection mixture (12 mM EDTA, 4 nM detection antibody prepared in detection buffer (50 mM Tris-HCl, 150 mM NaCl, 0.5% BSA (Fraction V), pH 7.0)) at room temperature. The plate was then read on a Perkin Elmer EnVision Plate Reader using europium specific reader settings with excitation and emission wavelengths set to 320 or 340 nm and 665 nm, respectively.
For dose-response analyses, percent inhibition versus compound concentrations were plotted, and pIC50 values were determined from a 4-parameter robust fit model with GraphPad Prism V5 Software (GraphPad Software, Inc., La Jolla, CA). This model obtains pIC50 values by fitting the sigmoidal dose-response (variable slope) equation to the data. Results were expressed as pIC50 (negative logarithm of IC50) and subsequently converted to pKi (negative logarithm of dissociate constant, Ki) using the Cheng-Prusoff equation. The higher the value of pKi (lower value of Ki), the greater the inhibition of ALK5 activity.

In assay [2] the test system is TGF-β-stimulated SMAD3 phosphorylation in BEAS-2B cells. Briefly: Cellular ALK5 potency assay, inhibition of TGF-β stimulated pSMAD3 formation in BEAS-2B cells. The format is cell-based. Conditions: Homo sapiens, pSMAD3, TGF-β 10 ng/mL, read-out: BEAS2B pIC50 (converted). The protocol:
The potency of compounds of the present disclosure for inhibition of TGF-β-stimulated SMAD3 phosphorylation was measured in BEAS-2B cells, a human lung epithelial cell line. TGF-β signals through activin receptor-like kinase 5 (ALK5) immediately prior to SMAD3 phosphorylation.
BEAS-2B cells were grown using 50% DMEM (Life Technologies) and 50% F-12 (Life Technologies) media, supplemented with 10% Fetal Bovine Serum (ATCC), 25 mM HEPES (Life Technologies), and 1×Pen-Strep (Life Technologies). Cells were cultured in a humidified incubator set at 37° C., 5% CO2, and trypsonized using 0.25% Trypsin with 0.5% polyvinylpyrrolidone (PVP).
For the assay, BEAS-2B cells were seeded at 7,500 cells/well (25 μL/well) in a 384-well plate and cultured overnight. Before dosing, growth media was aspirated and the wells were rinsed with HBSS Buffer (HBSS with Calcium and Magnesium, Life Technologies) supplemented with 25 mM HEPES (Life Technologies) and 1% Bovine Serum Albumin (Roche). Compounds were serially diluted in DMSO, then further diluted with supplemented HBSS Buffer (50 μL/well) to create a compound plate 3× of the final assay concentration, at 0.3% DMSO. The diluted compounds were then added to the cells (8 μL/well) and incubated at 37° C., 5% CO2 for 1 hour. After the compound incubation, TGF-β (R&D Systems) reconstituted in supplemented HBSS Buffer was added to the cells ([…], final concentration 10 ng/mL) and incubated for a further 30 minutes, after which the cells were immediately lysed with AlphaLISA lysis buffer (PerkinElmer). AlphaLISA Acceptor and Detector beads (PerkinElmer) were added 2 hours apart, then incubated overnight to be read the next day. The potency of the compound was determined through analysis of dose-dependent quantified changes in pSMAD3 signal from baseline (non-compound treated TGF-β stimulated cells). Data are expressed as pIC50 (negative decadic logarithm IC50) values.

Regarding `Cc1ccc(O)cc1-c1nccc(Nc2ccnc(Nc3ccc(N4CCC(N(C)C)CC4)cc3)n2)n1` [Compound 16, 3-[4-[[2-[4-[4-(dimethylamino)-1-piperidyl]anilino]pyrimidin-4-yl]amino]pyrimidin-2-yl]-4-methyl-phenol], in assay [1], the Ki is 0.398 to 3.16 nM. Also, the IC50 in assay [2] was 25.1 to 158 nM.

With `Cc1cccc(-c2nccc(Nc3ccnc(Nc4ccc(CN5CCC(C(=O)OC6CNC6)CC5)cc4)n3)n2)n1` [Compound 17, azetidin-3-yl 1-[[4-[[4-[[2-(6-methyl-2-pyridyl)pyrimidin-4-yl]amino]pyrimidin-2-yl]amino]phenyl]methyl] piperidine-4-carboxylate], in assay [1], the Ki is 0.0398 to 0.316 nM. In assay [2], the IC50 was 25.1 to 158 nM.

For `COc1cc(Nc2nccc(Nc3ccnc(-c4cccc(C)n4)n3)n2)ccc1NS(C)(=O)=O` [Compound 18, N-[2-methoxy-4-[[4-[[2-(6-methyl-2-pyridyl)pyrimidin-4-yl]amino]pyrimidin-2-yl]amino]phenyl] methanesulfonamide], in assay [1], the Ki is 0.398 to 3.16 nM. Also, the IC50 in assay [2] is 25.1 to 158 nM.

`Fc1cc(F)c(-c2nccc(Nc3ccnc(Nc4ccc(N5CCOCC5)cc4)n3)n2)cc1Cl` [Compound 19, N4-[2-(5-chloro-2,4-difluoro-phenyl)pyrimidin-4-yl]-N2-(4-morpholinophenyl)pyrimidine-2,4-diamine]: in assay [1], the Ki was 3.98 to 31.6 nM. Besides, the IC50 in assay [2] was 25.1 to 158 nM.

As to `COc1ncc(Nc2nccc(Nc3ccnc(-c4cccc(C)n4)n3)n2)cc1NS(C)(=O)=O` [Compound 20, N-[2-methoxy-5-[[4-[[2-(6-methyl-2-pyridyl)pyrimidin-4-yl]amino]pyrimidin-2-yl]amino]-3-pyridyl]methanesulfonamide], the Ki in assay [1] is 0.398 to 3.16 nM. For the same compound, the IC50 in assay [2] was not above 20 nM.

As for `Cc1cccc(-c2nccc(Nc3ccnc(Nc4ccc(S(=O)(=O)N5CCNCC5)cc4)n3)n2)n1` [Compound 21, N4-[2-(6-methyl-2-pyridyl)pyrimidin-4-yl]-N2-(4-piperazin-1-ylsulfonylphenyl)pyrimidine-2,4-diamine], in assay [1], the Ki was 0.0398 to 0.316 nM. Moreover, the IC50 in assay [2] was 25.1 to 158 nM.

On to `Cc1cccc(-c2nccc(Nc3ccnc(Nc4ccc(CN5CC(C(=O)OC6CCNCC6)C5)cc4)n3)n2)n1` [Compound 22, 4-piperidyl 1-[[4-[[4-[[2-(6-methyl-2-pyridyl)pyrimidin-4-yl]amino]pyrimidin-2-yl]amino]phenyl]methyl] azetidine-3-carboxylate], for which the Ki in assay [1] was 0.0398 to 0.316 nM. In assay [2], the IC50 was 25.1 to 158 nM.

On to `Cc1cccc(-c2nccc(Nc3ccnc(Nc4ccc(CN5CCN(Cc6ccccc6)CC5)cc4)n3)n2)n1` [Compound 23, N2-[4-[(4-benzylpiperazin-1-yl)methyl]phenyl]-N4-[2-(6-methyl-2-pyridyl)pyrimidin-4-yl]pyrimidine-2,4-diamine], for which the Ki in assay [1] was 0.0398 to 0.316 nM. In addition, in assay [2], the IC50 is 25.1 to 158 nM.

Turning to `Cc1cccc(-c2nccc(Nc3ccnc(Nc4ccc(CN(C)C)cc4)n3)n2)n1` [Compound 24, N2-[4-[(dimethylamino)methyl]phenyl]-N4-[2-(6-methyl-2-pyridyl)pyrimidin-4-yl]pyrimidine-2,4-diamine], in assay [1], the Ki is not above 0.0316 nM. Further, the IC50 in assay [2] was 25.1 to 158 nM.

On to `COC(=O)C1CNCCN1Cc1ccc(Nc2nccc(Nc3ccnc(-c4cccc(C)n4)n3)n2)cc1` (stereo not shown) [Compound 25, methyl 1-[[4-[[4-[[2-(6-methyl-2-pyridyl)pyrimidin-4-yl]amino]pyrimidin-2-yl]amino]phenyl]methyl] piperazine-2-carboxylate], for which the Ki in assay [1] was 0.0398 to 0.316 nM. For the same compound, in assay [2], the IC50 was 25.1 to 158 nM.

For `Cc1cccc(-c2nccc(Nc3ccnc(Nc4ccc(N5CCN(Cc6ccccc6)CC5)cc4)n3)n2)n1` [Compound 27, N2-[4-(4-benzylpiperazin-1-yl)phenyl]-N4-[2-(6-methyl-2-pyridyl)pyrimidin-4-yl]pyrimidine-2,4-diamine], the Ki in assay [1] is 0.0398 to 0.316 nM. The IC50 in assay [2] was 25.1 to 158 nM.

Turning to `COC(=O)C1CCN(Cc2ccc(Nc3nccc(Nc4ccnc(-c5cccc(C)n5)n4)n3)cc2)CC1` [Compound 28, methyl 1-[[4-[[4-[[2-(6-methyl-2-pyridyl)pyrimidin-4-yl]amino]pyrimidin-2-yl]amino]phenyl]methyl] piperidine-4-carboxylate], in assay [1], the Ki is 0.0398 to 0.316 nM. Also, the IC50 in assay [2] is not above 20 nM.

Turning to `Cc1cccc(-c2nccc(Nc3ccnc(Nc4ccc(CN5CCCC(C(=O)OC6CCN(C)C6)C5)cc4)n3)n2)n1` (stereo not shown) [Compound 29, (1-methylpyrrolidin-3-yl) 1-[[4-[[4-[[2-(6-methyl-2-pyridyl)pyrimidin-4-yl]amino]pyrimidin-2-yl]amino]phenyl]methyl] piperidine-3-carboxylate], the Ki in assay [1] was not above 0.0316 nM. Moreover, the IC50 in assay [2] was not above 20 nM.

As to `Cc1cccc(-c2nccc(Nc3ccnc(Nc4ncc(C(=O)N5CCNCC5)s4)n3)n2)n1` [Compound 30, [2-[[4-[[2-(6-methyl-2-pyridyl)pyrimidin-4-yl]amino]pyrimidin-2-yl]amino]thiazol-5-yl]-piperazin-1-yl-methanone], the Ki in assay [1] was 3.98 to 31.6 nM. In assay [2], the IC50 is 200 to 1260 nM.

`Cc1cccc(-c2nccc(Nc3ccnc(Nc4ccc(N5CCNCC5CC(=O)O)cc4)n3)n2)n1` (stereo not shown) [Compound 31, 2-[1-[4-[[4-[[2-(6-methyl-2-pyridyl)pyrimidin-4-yl]amino]pyrimidin-2-yl]amino]phenyl]piperazin-2-yl]acetic acid]: the Ki in assay [1] was 0.0398 to 0.316 nM. Further, the IC50 in assay [2] was 200 to 1260 nM.

In the case of `Cc1cccc(-c2nccc(Nc3ccnc(Nc4ccc(CN5C[C@@H](C)NC[C@H]5C)cc4)n3)n2)n1` [Compound 32, N2-[4-[[(2R,5R)-2,5-dimethylpiperazin-1-yl]methyl]phenyl]-N4-[2-(6-methyl-2-pyridyl)pyrimidin-4-yl]pyrimidine-2,4-diamine], the Ki in assay [1] is 0.0398 to 0.316 nM. The IC50 in assay [2] was 25.1 to 158 nM.

Regarding `Cc1cccc(-c2nccc(Nc3ccnc(Nc4ccc(C(=O)OCC5CNC5)cc4)n3)n2)n1` [Compound 33, azetidin-3-ylmethyl 4-((4-((2-(6-methylpyridin-2-yl)pyrimidin-4-yl)amino)pyrimidin-2-yl)amino)benzoate], the Ki in assay [1] was 0.0398 to 0.316 nM. Further, in assay [2], the IC50 is 25.1 to 158 nM.
